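Step 1: Grow cells in 96-well plates. Step 2: Expose to compound for 48 hours at 5 concentrations. Step 3: Interpolate endpoints linearly; if unreached, use highest concentration. Definition used: TGI = concentration required for complete inhibition of growth.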
Columns and labels:
Test in all cases: NCI anticancer screen, dose series, 48 h
[1] = test system: 786-0 renal
[2] = test system: CAKI-1 renal
[3] = test system: HCC-2998 colon
[4] = test system: K-562 leukemia
[5] = test system: MALME-3M melanoma
[6] = test system: NCI-H522 lung
[7] = test system: OVCAR-5 ovarian
[8] = test system: SNB-19 CNS
[9] = test system: U251 CNS
[10] = test system: UO-31 renal
[11] = test system: NCI/ADR-RES ovarian
[12] = test system: MDA-N

Row | Structure (SMILES) | TGI [1] | TGI [2] | TGI [3] | TGI [4] | TGI [5] | TGI [6] | TGI [7] | TGI [8] | TGI [9] | TGI [10] | TGI [11] | TGI [12]
1 | COc1cc(OC)c2c(O)cc(CC(C)O)cc2c1 (configuration not stated) | > 100 µM | > 100 µM | > 100 µM | > 100 µM | > 100 µM | > 100 µM | > 100 µM | > 100 µM | > 100 µM | > 100 µM | – | –
2 | CC(=O)OC[C@H]1O[C@@H](O[C@H]2[C@H](OC(C)=O)C=CO[C@@H]2COC(C)=O)C(OC(C)=O)[C@H]2OC(C)(C)O[C@H]21 (some centres not stated) | > 100 µM | > 100 µM | > 100 µM | > 100 µM | > 100 µM | 35.7 µM | > 100 µM | > 100 µM | > 100 µM | > 100 µM | > 100 µM | –
3 | C=CC[C@H]1[C@@H](O[Si](C)(C)C(C)(C)C)[C@H](n2ccc(=O)[nH]c2=O)O[C@@H]1CO[Si](C)(C)C(C)(C)C | 3.01 µM | 4.42 µM | 3.74 µM | 6.1 µM | 9.04 µM | 3.93 µM | 3.91 µM | 6.76 µM | 4.44 µM | 3.65 µM | 4.95 µM | –
4 | Cn1ccnc1S/C(=C\C=C(C#N)C#N)c1ccc(Cl)cc1 | 5.21 µM | 6.16 µM | 9.54 µM | 3.41 µM | 3.27 µM | 11.5 µM | 7.81 µM | 10.8 µM | 6.85 µM | 9.34 µM | 7.85 µM | –
5 | CC(=O)c1ccc(N=Nc2ccc3nonc3c2N)cc1 | > 100 µM | > 100 µM | > 100 µM | > 100 µM | > 100 µM | – | > 100 µM | > 100 µM | > 100 µM | > 100 µM | > 100 µM | > 100 µM
6 | CCCCCc1cc(OC(=O)c2c(O)cc(OC)cc2CCCCC)cc(O)c1C(=O)O | 30.3 µM | 34.5 µM | 29 µM | > 100 µM | 26.1 µM | 28.2 µM | 34.1 µM | 25.5 µM | 29.1 µM | 26.6 µM | – | –
7 | CSc1c(C(=O)Nc2ccccc2)c(N)nn1-c1ccccc1 | > 100 µM | > 100 µM | > 100 µM | > 100 µM | > 100 µM | – | > 100 µM | > 100 µM | > 100 µM | > 100 µM | > 100 µM | > 100 µM
8 | CC1OC(OCC2OC(Oc3c(-c4ccc(O)cc4)oc4cc(O)cc(O)c4c3=O)C(OC3OCC(O)(CO)C3O)C(O)C2O)C(O)C(O)C1O (configuration not stated) | > 100 µM | > 100 µM | > 100 µM | 74.9 µM | > 100 µM | > 100 µM | > 100 µM | > 100 µM | > 100 µM | > 100 µM | – | –
9 | COC(=O)Cc1ccc2c(c1)Sc1ccc(CC(=O)OC)cc1N2C | > 100 µM | 52 µM | > 100 µM | > 100 µM | 80.6 µM | 58.1 µM | > 100 µM | > 100 µM | > 100 µM | > 58.5 µM | > 68.3 µM | –
10 | CCC1C(=O)C[C@H]2[C@@H]3C(O)CC4=CC(=O)CC[C@]4(C)[C@H]3CC[C@]12C (some centres not stated) | > 50 µM | > 50 µM | > 50 µM | > 50 µM | > 50 µM | > 50 µM | > 50 µM | > 50 µM | > 50 µM | > 50 µM | > 50 µM | –

— PubChem BioAssay (NCI)
